Experimental data as given in the NIST ThermoML archive (doi:10.1016/j.fluid.2008.03.011).
± gives the expanded uncertainty stated by the source.

Key:
[1] = excess molar enthalpy (molar enthalpy of mixing); xn = mol fraction of the nth substance listed; conditions: 363.15 K, Liquid, Flow calorimetry
[2] = activity coefficient (dimensionless); of the first substance listed, at infinite dilution; xn = mol fraction of the nth substance listed; conditions: 101 kPa, Liquid, x1 = 0
[3] = activity coefficient (dimensionless); of the first substance listed, at infinite dilution; wn = mass fraction of the nth substance listed; conditions: 101 kPa, Liquid, dilutor technique, w1 = 0

Compound: CCCCCC[n+]1ccn(C)c1.O=S(=O)([N-]S(=O)(=O)C(F)(F)F)C(F)(F)F + CC1CCCCC1
- excess molar enthalpy ([1]; 1617 kPa, x2 = 0.0612): 0.0459 ± 0.00191 kcal/mol
- excess molar enthalpy ([1]; 1617 kPa, x2 = 0.118): 0.092 ± 0.00382 kcal/mol
- excess molar enthalpy ([1]; 1617 kPa, x2 = 0.1708): 0.132 ± 0.0055 kcal/mol
- excess molar enthalpy ([1]; 1617 kPa, x2 = 0.2202): 0.166 ± 0.00669 kcal/mol
- excess molar enthalpy ([1]; 1617 kPa, x2 = 0.2663): 0.176 ± 0.00717 kcal/mol
- excess molar enthalpy ([1]; 1617 kPa, x2 = 0.3096): 0.173 ± 0.00693 kcal/mol
- excess molar enthalpy ([1]; 1617 kPa, x2 = 0.3885): 0.154 ± 0.00621 kcal/mol
- excess molar enthalpy ([1]; 1617 kPa, x2 = 0.4586): 0.136 ± 0.0055 kcal/mol
- excess molar enthalpy ([1]; 1617 kPa, x2 = 0.5213): 0.12 ± 0.00502 kcal/mol
- excess molar enthalpy ([1]; 1617 kPa, x2 = 0.6288): 0.0943 ± 0.00382 kcal/mol
- excess molar enthalpy ([1]; 1617 kPa, x2 = 0.7176): 0.0722 ± 0.00287 kcal/mol
- excess molar enthalpy ([1]; 1617 kPa, x2 = 0.7922): 0.0525 ± 0.00217 kcal/mol
- excess molar enthalpy ([1]; 1617 kPa, x2 = 0.884): 0.0269 ± 0.00112 kcal/mol

Compound: CCCCCC[n+]1ccn(C)c1.O=S(=O)([N-]S(=O)(=O)C(F)(F)F)C(F)(F)F + CCCCCCCC
- excess molar enthalpy ([1]; 1548 kPa, x2 = 0.0486): 0.0487 ± 0.00201 kcal/mol
- excess molar enthalpy ([1]; 1548 kPa, x2 = 0.095): 0.0882 ± 0.00359 kcal/mol
- excess molar enthalpy ([1]; 1548 kPa, x2 = 0.1392): 0.108 ± 0.0043 kcal/mol
- excess molar enthalpy ([1]; 1548 kPa, x2 = 0.1814): 0.116 ± 0.00478 kcal/mol
- excess molar enthalpy ([1]; 1548 kPa, x2 = 0.2217): 0.111 ± 0.00454 kcal/mol
- excess molar enthalpy ([1]; 1548 kPa, x2 = 0.2603): 0.106 ± 0.0043 kcal/mol
- excess molar enthalpy ([1]; 1548 kPa, x2 = 0.3327): 0.0959 ± 0.00382 kcal/mol
- excess molar enthalpy ([1]; 1548 kPa, x2 = 0.3993): 0.0877 ± 0.00359 kcal/mol
- excess molar enthalpy ([1]; 1548 kPa, x2 = 0.4608): 0.0791 ± 0.00335 kcal/mol
- excess molar enthalpy ([1]; 1548 kPa, x2 = 0.5707): 0.0636 ± 0.00263 kcal/mol
- excess molar enthalpy ([1]; 1548 kPa, x2 = 0.666): 0.0483 ± 0.00201 kcal/mol
- excess molar enthalpy ([1]; 1548 kPa, x2 = 0.7495): 0.0384 ± 0.0016 kcal/mol
- excess molar enthalpy ([1]; 1548 kPa, x2 = 0.8568): 0.0227 ± 0.000956 kcal/mol

Compound: CCO [ethanol] + CCCCCCn1cc[n+](C)c1.O=S(=O)([O-])C(F)(F)F
- activity coefficient ([2]; 303.15 K, dilutor technique): 1.05 ± 0.07
- activity coefficient ([2]; 313.15 K, dilutor technique): 1 ± 0.06
- activity coefficient ([2]; 323.15 K, dilutor technique): 0.94 ± 0.06
- activity coefficient ([2]; 333.15 K, dilutor technique): 0.86 ± 0.06

Compound: CCO [ethanol] + CCCC[N+]1(C)CCCC1.O=S(=O)([O-])C(F)(F)F
- activity coefficient ([2]; 313.15 K, dilutor technique): 0.95 ± 0.06
- activity coefficient ([2]; 323.15 K, dilutor technique): 0.92 ± 0.06
- activity coefficient ([2]; 333.15 K, dilutor technique): 0.88 ± 0.06
- activity coefficient ([2]; 343.15 K, dilutor technique): 0.86 ± 0.06

Compound: CCO [ethanol] + CCOS(=O)(=O)[O-].CCn1cc[n+](C)c1
- activity coefficient ([2]; 323.15 K, dilutor technique): 0.57 ± 0.05
- activity coefficient ([2]; 333.15 K, dilutor technique): 0.6 ± 0.05
- activity coefficient ([2]; 343.15 K, dilutor technique): 0.65 ± 0.05
- activity coefficient ([2]; 353.15 K, dilutor technique): 0.7 ± 0.05

Compound: CC1CCCCC1 [methylcyclohexane] + CCCCCCCC[N+]1(C)CCCC1.O=S(=O)([N-]S(=O)(=O)C(F)(F)F)C(F)(F)F
- activity coefficient ([2]; 303.15 K, dilutor technique): 4.59 ± 0.41
- activity coefficient ([2]; 313.15 K, dilutor technique): 4.41 ± 0.39
- activity coefficient ([2]; 323.15 K, dilutor technique): 4.29 ± 0.38
- activity coefficient ([2]; 333.15 K, dilutor technique): 4.18 ± 0.37

Compound: CC1CCCCC1 [methylcyclohexane] + CCCCCC[n+]1ccn(C)c1.O=S(=O)([N-]S(=O)(=O)C(F)(F)F)C(F)(F)F
- activity coefficient ([2]; 303.15 K, dilutor technique): 6.83 ± 0.61
- activity coefficient ([2]; 313.15 K, dilutor technique): 6.59 ± 0.59
- activity coefficient ([2]; 323.15 K, dilutor technique): 6.3 ± 0.56
- activity coefficient ([2]; 333.15 K, dilutor technique): 6.06 ± 0.54

Compound: CC1CCCCC1 [methylcyclohexane] + CCCCCCn1cc[n+](C)c1.O=S(=O)([O-])C(F)(F)F
- activity coefficient ([2]; 303.15 K, dilutor technique): 10.5 ± 0.95
- activity coefficient ([2]; 313.15 K, dilutor technique): 10.2 ± 0.9
- activity coefficient ([2]; 323.15 K, dilutor technique): 9.77 ± 0.88
- activity coefficient ([2]; 333.15 K, dilutor technique): 9.49 ± 0.85

Compound: Cc1ccccc1 [toluene] + CCCCCCCC[N+]1(C)CCCC1.O=S(=O)([N-]S(=O)(=O)C(F)(F)F)C(F)(F)F
- activity coefficient ([2]; 303.15 K, dilutor technique): 0.67 ± 0.05
- activity coefficient ([2]; 313.15 K, dilutor technique): 0.73 ± 0.05
- activity coefficient ([2]; 323.15 K, dilutor technique): 0.8 ± 0.05
- activity coefficient ([2]; 333.15 K, dilutor technique): 0.86 ± 0.06

Compound: Cc1ccccc1 [toluene] + CCCCCC[n+]1ccn(C)c1.O=S(=O)([N-]S(=O)(=O)C(F)(F)F)C(F)(F)F
- activity coefficient ([2]; 303.15 K, dilutor technique): 0.85 ± 0.06
- activity coefficient ([2]; 313.15 K, dilutor technique): 0.95 ± 0.06
- activity coefficient ([2]; 323.15 K, dilutor technique): 1.05 ± 0.07
- activity coefficient ([2]; 333.15 K, dilutor technique): 1.14 ± 0.07

Compound: Cc1ccccc1 [toluene] + CCCCCCn1cc[n+](C)c1.O=S(=O)([O-])C(F)(F)F
- activity coefficient ([2]; 303.15 K, Dilutor technique): 1.38 ± 0.09
- activity coefficient ([2]; 313.15 K, Dilutor technique): 1.52 ± 0.1
- activity coefficient ([2]; 323.15 K, Dilutor technique): 1.65 ± 0.12
- activity coefficient ([2]; 333.15 K, Dilutor technique): 1.75 ± 0.12

Compound: O [water] + CCCCCCn1cc[n+](C)c1.O=S(=O)([O-])C(F)(F)F
- activity coefficient ([3]; 303.15 K): 1.31 ± 0.09
- activity coefficient ([3]; 313.15 K): 1.04 ± 0.06
- activity coefficient ([3]; 323.15 K): 0.82 ± 0.05
- activity coefficient ([3]; 333.15 K): 0.64 ± 0.05

Compound: O [water] + CCCC[N+]1(C)CCCC1.O=S(=O)([O-])C(F)(F)F
- activity coefficient ([2]; 313.15 K, dilutor technique): 0.67 ± 0.05
- activity coefficient ([2]; 323.15 K, dilutor technique): 0.56 ± 0.05
- activity coefficient ([2]; 333.15 K, dilutor technique): 0.51 ± 0.04
- activity coefficient ([2]; 343.15 K, dilutor technique): 0.44 ± 0.04
